# In US7223733B2, “Modulation of TRIP-Br function and method of treating proliferative disorders” (National University of Singapore, priority 2004, dated 2007):
# [invdT] = inverted (3'-3') thymidine
# Legend:
# U2OS cells = assay: Cell cycle synchronization of U2OS cells, flow cytometry; type: cell-based, human; conditions: 75 ng/ml, 22 h, data not shown
# Procedure: Cell synchronization and cell cycle progression analyses. U2OS cells in 6-well dishes were subjected to nocodazole treatment (75 ng/ml) for 22 h. Thereafter, the nocodazole-arrested cultures were released by washing with 1×PBS and grown in DMEM plus 10% FBS containing either vehicle (0.5% DMSO) or 20 μM decoy peptides. Cells were harvested at 4-h intervals for standard Western blot analyses. For the analysis of Geminin protein profile, mock- or cyclin E/Cdk2-transfected U2OS cells were exposed to nocodazole (75 ng/ml) at 3 h post-transfection for 22 h.
# FLAG-TRIP-Br1 = assay: Western blot with TB1-27#2 and peptide competition; type: binding, human; conditions: lysates of transfected U2OS cells
# Procedure: For Western blot analysis, U2OS cells transfected with the pcDNA3 vector, pcDNA3 vector with TRIP-Br1 insert or TRIP-Br2 insert were harvested. The lysates were separated in a 10% acrylamide gel and blotted onto a transfer membrane. The blot was cut and probed with a mouse monoclonal anti-FLAG antibody or TB1-27#2. For 2 sections, TB1-27 and Cyr61 peptides were added in addition to TB1-27#2 as a source of competition.
# FLAG-TRIP-Br1 protein = assay: Immunoprecipitation assay with TB1-27#2 and peptide competition; type: binding, human; conditions: lysates of transfected U2OS cells
# Procedure: In an immunoprecipitation assay, fifty microliters of Protein A-agarose (Amersham) were incubated with 2 ml of TB1-27#2 spent media overnight. Each aliquot of agarose was washed and added to the lysates of variously transfected U2OS cells. The TB1-27 and Cyr61 peptides were separately added into 2 of the reactions while one of the reactions was probed with mouse monoclonal anti-His antibodies instead of […]. The agarose was harvested and washed the next day, and the bound proteins analyzed by SDS-PAGE. The gel was blotted and detected with anti-FLAG antibodies. The results are shown in FIG. 23 (the left panel contains 1/10th of the input of the pre-cleared U2OS cell lysate while the right panel contains the proteins eluted from the Protein A-agarose). […] Anti-DP-1 was used as a positive control for immunoprecipitation since it is known that TRIP-Br1 interacts directly with DP-1.
# hTRIP-Br1 mRNA = assay: Semi-quantitative RT-PCR of intact hTRIP-Br1 transcripts in WI-38 cells; type: cell-based, human; conditions: WI-38, 0.1 μM, 16 h post-stimulation with 10% FBS
# Procedure: (§1) DNA enzyme transfection. WI-38 cells were rendered quiescent by cultivation in serum-free medium for 72 h before being transfected with DNA enzyme (0.1 μM) using Superfect as reported previously (Santiago, F. S., et al. Nat Med 5, 1264-1269 (1999)) in accordance to manufacturer's recommendations (Qiagen).
# (§2) Semi-quantitative RT-PCR. Following various treatments, WI-38 cells in 6-well culture dish were subjected to total RNA extraction using the TRIZOL® Reagent (Life Technologies). Total RNA (4 μg) was reversed transcribed using oligo-dT and M-MLV reverse transcriptase in a total reaction volume of 20 μl. Polymerase Chain Reactions (PCR) were carried out on 3 μl cDNA sample in the presence of […] deoxyribonucleotide triphosphates (dNTPs) and 40 μM of specific primer pairs in a total reaction volume of 50 μl. […] Post-PCR samples were analyzed by agarose gel electrophoresis.
# (§3) FIG. 11: (A) hTRIP-Br1 and hTRIP-Br2 expression is serum-inducible. […] At 24 h post-serum re-stimulation, semi-quantitative RT-PCR analysis was performed on total RNA to assess hTRIP-Br1 and hTRIP-Br2 expression. β-actin was included as an internal control. […] Semi-quantitative RT-PCR analysis was performed on total RNA to assess hTRIP-Br1 and hTRIP-Br2 expression. β-actin was included as an internal control. […]
# hTRIP-Br2 mRNA = assay: Semi-quantitative RT-PCR of intact hTRIP-Br2 transcripts in WI-38 cells; type: cell-based, human; conditions: WI-38, 0.1 μM, 16 h post-stimulation with 10% FBS
# Procedure: as §1, §2, §3
# WI-38 fibroblasts = assay: Trypan blue exclusion manual cell count of serum-stimulated WI-38 cells; type: cell-based, human; conditions: WI-38, 0.1 μM, 72 h post-stimulation
# Procedure: as §1
# Cell proliferation assays. For the BrdU incorporation assays, growth-quiescent WI-38 cells in 96-well dishes were transfected with DNA enzyme and/or 100 ng of pCMV/E2F1, pCMV/DP1, pRSV/Cyclin E, or pCMV/Cdk2 and then exposed to Bromodeoxyuridine (BrdU, 100 μM) in the presence or absence of 10% FBS for 20 h. Bromodeoxyuridine (BrdU) incorporation was monitored with a calorimetric ELISA assay using a cell proliferation kit according to manufacturer's recommendations (Boehringer Mannheim). For manual cell count, growth-quiescent WI-38 cells in 24-well dishes were transfected with DNA enzyme and then exposed to 10% FBS for 72 h. The cells were rinsed with PBS, pH 7.4, and trypsinized, and 10 μl of cell suspension was taken from each sample and mixed with equal volume of trypan blue stain (Sigma, 0.4% w/v in 1×PBS). The number of unstained cells was enumerated manually using a hemocytometer. For colony formation assays, growth-quiescent WI-38 cells in 12-well dishes were transfected with DNA enzyme and then exposed to 10% FBS for 120 h. […]
# WI-38 cells [1] = assay: Colony formation assay of WI-38 cells (crystal violet); type: cell-based, human; conditions: WI-38, serum-induced, 72 h
# Procedure: as §1
# Cell proliferation assays. For the BrdU incorporation assays, growth-quiescent WI-38 cells in 96-well dishes were transfected with DNA enzyme and/or 100 ng of pCMV/E2F1, pCMV/DP1, pRSV/Cyclin E, or pCMV/Cdk2 and then exposed to Bromodeoxyuridine (BrdU, 100 μM) in the presence or absence of 10% FBS for 20 h. Bromodeoxyuridine (BrdU) incorporation was monitored with a calorimetric ELISA assay using a cell proliferation kit according to manufacturer's recommendations (Boehringer Mannheim). For manual cell count, growth-quiescent WI-38 cells in 24-well dishes were transfected with DNA enzyme and then exposed to 10% FBS for 72 h. The cells were rinsed with PBS, pH 7.4, and trypsinized, and 10 μl of cell suspension was taken from each sample and mixed with equal volume of trypan blue stain (Sigma, 0.4% w/v in 1×PBS). The number of unstained cells was enumerated manually using a hemocytometer. […] Cells were stained in situ with crystal violet (0.75% w/v hexamethyl-p-rosaniline chloride [SIGMA], 50% ethanol, 1.75% w/v paraformaldehyde, 0.25% w/v NaCl) for 10 min, and then rinsed thoroughly with deionized water to remove excess stains.
# FIG. 12: (A) E-Br1 or E-Br2 inhibits cell proliferation. Sub-confluent WI-38 cells were serum-starved for 72 h. Following DNA enzyme transfection, the cultures were re-stimulated with serum and allowed to proliferate. After 72 h, cells were harvested for viable cell count analysis. 10 μl of cell suspension from each sample was mixed with equal volume of 0.4% trypan blue stain. The number of unstained cells was enumerated manually using a hemocytometer. Data represent the average of at least two independent experiments. […] (B) E-Br1 or E-Br2 suppresses colony formation. Sub-confluent WI-38 cells were serum-starved for 72 h. […]
# WI-38 cells [2] = assay: BrdU incorporation, serum-induced S phase entry of WI-38 cells; type: cell-based, human; conditions: WI-38, 0.1 μM, 20 h; compared to unstimulated cells
# Procedure: as §1
# Cell proliferation assays. For the BrdU incorporation assays, growth-quiescent WI-38 cells in 96-well dishes were transfected with DNA enzyme and/or 100 ng of pCMV/E2F1, pCMV/DP1, pRSV/Cyclin E, or pCMV/Cdk2 and then exposed to Bromodeoxyuridine (BrdU, 100 μM) in the presence or absence of 10% FBS for 20 h. Bromodeoxyuridine (BrdU) incorporation was monitored with a calorimetric ELISA assay using a cell proliferation kit according to manufacturer's recommendations (Boehringer Mannheim). For manual cell count, growth-quiescent WI-38 cells in 24-well dishes were transfected with DNA enzyme and then exposed to 10% FBS for 72 h. The cells were rinsed with PBS, pH 7.4, and trypsinized, and 10 μl of cell suspension was taken from each sample and mixed with equal volume of trypan blue stain (Sigma, 0.4% w/v in 1×PBS). The number of unstained cells was enumerated manually using a hemocytometer. For colony formation assays, growth-quiescent WI-38 cells in 12-well dishes were transfected with DNA enzyme and then exposed to 10% FBS for 120 h. Cells were stained in situ with crystal violet (0.75% w/v hexamethyl-p-rosaniline chloride [SIGMA], 50% ethanol, 1.75% w/v paraformaldehyde, 0.25% w/v NaCl) for 10 min, and then rinsed thoroughly with deionized water to remove excess stains.
# FIG. 13: (A) E-Br1 or E-Br2 suppresses serum-inducible S phase entry. Sub-confluent WI-38 cells were serum-starved for 72 h. Following DNA enzyme transfection, the cultures were re-stimulated with serum and allowed to proliferate in BrdU labeling medium. After 20 h, cells were assayed for BrdU incorporation with a colorimetric ELISA assay. Values represent the average of at least two independent experiments. […] Sub-confluent WI-38 cells were serum-starved for 72 h. […]
# [3] = tested on: caspase-3 protease activity; assay: Caspase assay with Ac-DEVD-AFC in U2OS cells; type: cell-based, human; conditions: 24 h
# Procedure: Caspase assay. Both adherent and detached cells in 6-well dishes were harvested by centrifugation at 2000 rpm for 15 min at 4° C. The resulting cell pellets were incubated in 50 μl of chilled lysis buffer (Clontech) on ice for 10 min. Cell lysates were incubated in a reaction mix containing 10 mM HEPES, 2.0 mM EDTA, 10 mM KCl, 1.5 mM MgCl2, 1.0 mM PMSF, aprotinine, pepstatin A and leupeptine (20 μM each), 6.0 mM DTT and Ac-DEVD-AFC (4.0 μg/ml). Reactions were allowed to proceed at room temperature. Fluorescence readings were taken at 15 min intervals for 1 h using a spectrofluorometer (excitation wavelength: 400 nm; emission wavelength: 505 nm).
# (§4) FIG. 6: Caspase assay. (A) Caspase 3 protease activity in U2OS cells exposed to either Eto (Etoposide) for 24 h or 50 μM decoy peptides for 48 or 72 h, were assayed using the Ac-DEVD-AFC fluorogenic substrate. […] Values represent the average +/− standard deviation of two independent experiments. Control: cells cultured in normal growth medium; Vehicle: cells cultured in the presence of 0.5% DMSO; (B) Western blot analysis of PARP cleavage. U2OS cells were exposed to either Eto (Etoposide) for 24 h or 50 μM decoy peptides for 72 h. Lane 1: Vehicle cells (cultured in the presence of 0.5% DMSO for 24 h); Lane 2: 25 μM Eto; Lane 3: 250 μM Eto; Lane 4: Vehicle (cells cultured in the presence of 0.5% DMSO for 72 h); Lane 5: *SCR; Lane 6: *Br1; Lane 7: *Br2.
# PARP cleavage = assay: Western blot analysis of PARP cleavage in U2OS cells; type: cell-based, human; conditions: 25 and 250 μM, 24 h
# Procedure: Denaturing SDS-PAGE and western blotting. Proteins from whole cell lysate and IP complexes were separated using standard denaturing polyacrylamide gel electrophoresis as described previously (Hsu, S. I. H., et al. EMBO J 20, 2273-2285 (2001)).
# as §4
molecule,measurement,setting,value
COC(=O)Nc1nc2ccc(C(=O)c3cccs3)cc2[nH]1 [nocodazole],cells arrested at the G2/M boundary with 4N DNA content,U2OS cells,more than 90%
DPGHTAAVAQAPPAVAS (Immunogenic peptide from human TRIP-Br1; listed as Homo sapiens) [TB1-27],blocking of TB1-27#2 binding in Western blot,FLAG-TRIP-Br1,able to block the binding
same,effect of competing peptide on TB1-27#2 binding to FLAG-TRIP-Br1 in immunoprecipitation,FLAG-TRIP-Br1 protein,abolished the binding
"5′-C AGCTACTGTGGCTAGCTACAACGACCTGTCAT-3′ (DNA CAGCTACTGTGGCTAGCTACAACGACCTGTCAT; DNA, 3' [invdT], backbone not given here) [E-SCR, reference compound]",serum-inducible steady-state hTRIP-Br1 mRNA level,hTRIP-Br1 mRNA,no effect
same,serum-inducible steady-state hTRIP-Br2 mRNA level,hTRIP-Br2 mRNA,no effect
same,effects on WI-38 growth as compared to vehicle-treated cells,WI-38 fibroblasts,no significant effects
same,colony forming potential,WI-38 cells [1],colony forming potential similar to the normal and the vehicle-treated controls
same,BrdU incorporation on serum stimulation,WI-38 cells [2],approximately twice as much BrdU
"COc1cc([C@@H]2c3cc4c(cc3[C@@H](O[C@@H]3O[C@@H]5CO[C@@H](C)O[C@H]5[C@H](O)[C@H]3O)[C@H]3COC(=O)[C@H]23)OCO4)cc(OC)c1O [Etoposide, etoposide, reference compound]",caspase-3 activity,[3],dose-dependent stimulation of caspase-3 activity several orders of magnitude above baseline
same,PARP cleavage,PARP cleavage,resulted in PARP cleavage in a dose-dependent manner
